Patent US8598118B2, “Hepatocyte growth factor mimics as therapeutic agents” (Washington State University, priority 2011, dated 2013)

What was measured:
c-Met receptor = experiment: c-Met phosphorylation in acute adult rat hippocampal slices; type: cell-based; conditions: 30 minutes
Description: Adult Sprague-Dawley rats (250 g+) obtained from Harlan Laboratories (Ca, USA) were anesthetized with isofluorane (Vet One™, MWI, Meridian, Id., USA) and decapitated. The brain was rapidly removed and placed into ice-chilled artificial cerebrospinal fluid (aCSF) for approximately 30 s. Both hemispheres were separated by a mid-saggital cut and both hippocampi removed. Slices were sectioned cross- and length-wise (400 μm) to ensure penetrability of the drug, using a McIlwain tissue chopper (Brinkmann, Gomshall, UK) and transferred to a gassed (95% O2/5% CO2) incubation chamber containing aCSF for 90 minutes at room temperature. […]
Protein concentration of the samples was quantified using the BCA method (Pierce, Rockford, Ill.) following the manufacturers protocol. […]

hippocampal neurons = experiment: Immunocytochemistry: percent correlation of spines to synaptic markers (VGLUT1, Synapsin, PSD-95); type: cell-based, rat; conditions: HGF 10 ng/ml, 5 days
Procedure: Transfected neurons were treated, fixed and stained. Briefly, cells were permeablized with 0.1% Triton X-100 detergent (Bio-Rad; Hercules, Calif.) for 10 minutes. An 8% bovine serum albumin (Intergen Company; Burlington, Mass.) in PBS was used to prevent non-specific binding for one hour at R.T.; Primary antibody incubations were at a 1:2500 dilution (see below) in 1% BSA in PBS at 4° C. overnight. Secondary antibody, 1:3000 Alexafluor 488 goat-anti-mouse (Invitrogen: Carlsbad, Calif.) was applied for two hours at room temperature. Coverslips were mounted with ProLong Gold anti-fade reagent (Invitrogen; Carlsbad, Calif.) and all washes were done with PBS. Imaging and analysis were performed as described above. […] In each instance the total number of spines was counted for the treatment groups, control, Nle1-AngIV and Dihexa, to ensure an active phenotype. The total number of actin enriched spines adjacent to VGLUT1 or Synapsin were counted and converted to a percentage as the percent correlation of treatment-induced spines to presynaptic markers is a strong indicator of ability to transmit excitatory signals.
Transfected neurons were treated, fixed and stained as previously described in Chapter two. […] In each instance the total number of spines was counted for the treatment groups, control, Nle1-AngIV and Dihexa, to ensure an active phenotype. […]

c-Met phosphorylation vs control (aCSF) slices (c-Met receptor; HGF 100 ng/ml (saturating)): increased c-Met phosphorylation
Substance: HGF: carrier free adult recombinant Hepatocyte Growth Factor (R and D Systems)
c-Met phosphorylation vs control (aCSF) slices (c-Met receptor; HGF 50 ng/ml (non-saturating)): not statistically different from control treated slices | percent correlation of spines to Synapsin (hippocampal neurons): 98%
